In US9133122B2, “Amide compounds, compositions and uses thereof” (EVOTEC AG, priority 2008, dated 2015):

Key:
hP2X2/3H = molecular target: T1, hP2X2/3H (Homo sapiens, UniProt P56373+Q9UBL9); experiment: Calcium uptake assay (Ca influx), P2X antagonist assay, P2X2/3 heteromer; type: cell-based; conditions: inhibition of agonist-induced calcium influx
T1 construct: expressed in transfected cells
T1 sequence (P56373 1-397): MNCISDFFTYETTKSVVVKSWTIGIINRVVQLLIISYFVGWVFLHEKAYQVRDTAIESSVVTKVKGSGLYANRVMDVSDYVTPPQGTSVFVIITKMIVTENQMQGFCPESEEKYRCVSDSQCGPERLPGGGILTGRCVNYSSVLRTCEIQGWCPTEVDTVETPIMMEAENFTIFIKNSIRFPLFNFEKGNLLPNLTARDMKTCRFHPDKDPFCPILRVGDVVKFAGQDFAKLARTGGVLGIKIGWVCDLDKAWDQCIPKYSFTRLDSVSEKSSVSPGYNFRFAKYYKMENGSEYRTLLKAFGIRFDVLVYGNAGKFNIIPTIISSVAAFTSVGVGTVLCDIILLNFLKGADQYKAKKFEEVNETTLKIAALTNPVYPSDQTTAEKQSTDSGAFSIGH
T1 sequence (Q9UBL9 1-471): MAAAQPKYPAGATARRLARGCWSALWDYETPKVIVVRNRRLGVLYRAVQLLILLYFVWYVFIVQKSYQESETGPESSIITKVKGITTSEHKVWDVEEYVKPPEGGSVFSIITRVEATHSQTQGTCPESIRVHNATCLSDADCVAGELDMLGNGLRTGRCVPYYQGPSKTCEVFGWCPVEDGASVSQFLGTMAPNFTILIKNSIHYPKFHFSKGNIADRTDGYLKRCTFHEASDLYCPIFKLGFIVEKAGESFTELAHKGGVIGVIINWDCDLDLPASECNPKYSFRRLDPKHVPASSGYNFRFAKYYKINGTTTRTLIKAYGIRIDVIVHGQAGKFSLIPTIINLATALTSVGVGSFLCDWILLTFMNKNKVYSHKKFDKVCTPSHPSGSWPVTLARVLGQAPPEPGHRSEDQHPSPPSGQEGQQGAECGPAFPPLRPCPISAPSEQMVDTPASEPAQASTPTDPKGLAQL
Source text: (§1) Human P2X3 (Accession no. NM_002559), P2X2 (Accession no. NM_170682) and Rat P2X3 (Accession no. NM_031075) and P2X2 (Accession no. NM_053656) are cloned into a mammalian expression vector (e.g., pcDNAS/TO or pcDNA3 Invitrogen). The human P2X2/3 chimera clone is created as described by Neelands et al, and then cloned into an expression vector as above. Receptors are expressed in cells (e.g., HEK293 or 1321N1 (obtained from the ECACC)) via transient transfection using standard lipid mediated transfection, or by creation of stable transfectants for each receptor. For expression of the P2X2/3 heteromeric receptor, the P2X3 expression vector is stably transfected into a cell line already stably expressing P2X2. P2X2/3 heteromer function is isolated using pharmacological methods. Cell lines are maintained in DMEM+5% Glutamax, the appropriate level of selective antibiotic, and 10% heat inactivated FBS.
(§2) Functional activity of compounds at the P2X receptor is determined by measuring their ability to inhibit agonist-induced calcium influx. Compounds are tested for antagonist activity against the P2X2/3 chimera, the P2X3 homomer, or the P2X2/3 heteromer. At the start of each screening day, the agonist EC50 is determined. Compound % inhibition or IC50s are subsequently determined using a predetermined agonist concentration (EC50-90 depending on cell line) as a stimulus. The agonists used are αβMeATP, ATP, or other ATP analogs. Compounds may be tested at concentrations ranging from 1 pM to 10 μM.
(§3) To test for antagonist activity, cells expressing the appropriate receptor are seeded onto 96 or 384 well plates 18-24 hours prior to assay. On the day of the assay, cells are loaded with calcium-sensitive fluorescent dye (e.g., Fluo-4 no wash reagent-Invitrogen cat#F36206, or the BD™ PBX Calcium Assay Kit-BD cat #640175) in Hank's Buffered Salt Solution (HBSS) with up to 10 mM supplemental CaCl2. Plates are incubated at 37° C. and then equilibrated at room temperature. Antagonism of agonist-induced calcium influx is measured using a fluorescent imaging plate reader (e.g. FLIPR^TETRA, Molecular Devices, Sunnyvale, Calif.). The assay comprises two stages: a pre-treatment phase followed by a treatment phase. Compounds may be tested as follows: For the pre-treatment phase, 50 μL of 3× concentration of test compound in HBSS is added to cells containing 100 μL of dye loading media to achieve a final concentration of 1× test compound. For the treatment phase, at a set interval after pre-treatment (1-30 minutes), 50 μL of 1× test compound plus 4× agonist solution is added, resulting in a final concentration of 1× compound and 1× agonist. Fluorescence is measured at 0.1-3 second intervals—with an excitation wavelength of 494 nm and an emission wavelength of 515 nm. Responses are measured as (peak fluorescence after agonist addition) minus (baseline fluorescence prior to treatment). Percent inhibition is calculated as follows:
(§4) [formula] IC50 values are determined by analyzing dose response data in a 4 parameter logistic fit using GraphPad Prizm.
(§5) The following compounds have been or can be prepared according to the synthetic methods described herein. A calcium uptake assay was performed as described above and the activity of each compound is expressed as follows: […]

hP2X3 = molecular target: T2, hP2X3 (Homo sapiens, UniProt P56373); experiment: Calcium uptake assay (Ca influx), P2X antagonist assay, P2X3 homomer; type: cell-based; conditions: inhibition of agonist-induced calcium influx
T2 construct: expressed in transfected cells
T2 sequence (P56373 1-397): T1 sequence (P56373 1-397)
Source text: as §1, §2, §3, §4, §5

Row | Structure (SMILES) | IC50 (hP2X2/3H) [nM] | IC50 (hP2X3) [nM]
1 | COc1ncc(-c2cc(C(=O)NCc3ccc(C)nc3)cc(-c3ccc(C)cc3)c2)cn1 [Compound 12, 5-(2-Methoxy-pyrimidin-5-yl)-4′-methyl-biphenyl-3-carboxylic acid (6-methyl-pyridin-3-ylmethyl)-amide] | 291 | 292
2 | Cc1ccc(-c2cc(C(=O)NCc3ccc(C)nc3)cc(N3CCNCC3=O)c2)cc1 [Compound 61, 4′-Methyl-5-(2-oxo-piperazin-1-yl)-biphenyl-3-carboxylic acid (6-methyl-pyridin-3-ylmethyl)-amide] | 2350 | 268
3 | Cc1ccc(-c2cc(C(=O)NCc3cnc(C)nc3)cc(-c3ccc(C)cn3)c2)nc1 [Compound 29, 3,5-Bis-(5-methyl-pyridin-2-yl)-N-(2-methyl-pyrimidin-5-ylmethyl)-benzamide] | 219 | 25.8
4 | Cc1ccc(-c2cc(C(=O)NCc3ccc(C)nc3)cc(N3CCN(C)CC3=O)c2)cc1 [Compound 68, 4′-Methyl-5-(4-methyl-2-oxo-piperazin-1-yl)-biphenyl-3-carboxylic acid (6-methyl-pyridin-3-ylmethyl)-amide] | 1390 | 371
5 | Cc1ccc(-c2cc(C(=O)NCc3ccc(C)nc3)cc(-c3ccccc3OC(F)(F)F)c2)nc1 [Compound 14, 5-(5-Methyl-pyridin-2-yl)-2′-trifluoromethoxy-biphenyl-3-carboxylic acid (6-methyl-pyridin-3-ylmethyl)-amide] | 172 | 318
6 | Cc1ccc(-c2cc(C(=O)NCc3cnc(C)nc3)cc(N3CCOCC3=O)c2)c(C#N)c1 [Compound 64, 2′-Cyano-4′-methyl-5-(3-oxo-morpholin-4-yl)-biphenyl-3-carboxylic acid (2-methyl-pyrimidin-5-ylmethyl)-amide] | 254 | 33.2
7 | COc1ccc(-c2cc(C(=O)NCc3ccc(C)nc3)cc(-c3ccc(C)cc3)c2)cc1OC [Compound 10, 3″,4″-Dimethoxy-4-methyl-[1,1′;3′,1″]terphenyl-5′-carboxylic acid (6-methyl-pyridin-3-ylmethyl)-amide] | 1270 | 759
8 | Cc1ccc(-c2cc(C(=O)N[C@H](C)c3cnc(C)nc3)cc(N3CCOCC3=O)c2)nc1 [Compound 57, 3-(5-Methyl-pyridin-2-yl)-N-[(R)-1-(2-methyl-pyrimidin-5-yl)-ethyl]-5-(3-oxo-morpholin-4-yl)-benzamide] | 527 | 89.2
9 | Cc1ccc(-c2cc(C(=O)NCc3ccc(C)nc3)cc(N3CCN(C)CC3=O)c2)c(C#N)c1 [Compound 67, 2′-Cyano-4′-methyl-5-(4-methyl-2-oxo-piperazin-1-yl)-biphenyl-3-carboxylic acid (6-methyl-pyridin-3-ylmethyl)-amide] | 667 | 102
10 | Cc1ccc(-c2cc(C(=O)N[C@H](C)CN3CCOCC3)cc(-c3cc(C)ccc3C#N)c2)nc1 [Compound 73, 2′-Cyano-5′-methyl-5-(5-methyl-pyridin-2-yl)-biphenyl-3-carboxylic acid ((R)-1-methyl-2-morpholin-4-yl-ethyl)-amide] | 340 | 104
11 | Cc1ccc(-c2cc(C(=O)N[C@H](C)c3cnc(C)nc3)cc(N3CCCC3=O)c2)nc1 [Compound 58, (R)-3-(5-Methylpyridin-2-yl)-N-(1-(2-methylpyrimidin-5-yl)ethyl)-5-(2-oxopyrrolidin-1-yl)benzamide] | 194 | 35.3
12 | Cc1ccc(-c2cc(C(=O)N[C@H](C)CN3CCOCC3)cc(-c3cc(C(F)(F)F)ccc3C#N)c2)nc1 [Compound 80, (R)-2′-cyano-5-(5-methylpyridin-2-yl)-N-(1-morpholinopropan-2-yl)-5′-(trifluoromethyl)biphenyl-3-carboxamide] | 218 | 351
13 | Cc1ccc(-c2cc(C(=O)NCc3cnc(C)nc3)cc(-c3ncccn3)c2)cc1 [Compound 2, 4′-Methyl-5-pyrimidin-2-yl-biphenyl-3-carboxylic acid (2-methyl-pyrimidin-5-ylmethyl)-amide] | 407 | 78.5
14 | Cc1ccc(-c2cc(C(=O)N[C@@H](C)CO)cc(-c3cc(C(F)(F)F)ccc3C#N)c2)nc1 [Compound 79, 2′-Cyano-5-(5-methyl-pyridin-2-yl)-5′-trifluoromethyl-biphenyl-3-carboxylic acid ((S)-2-hydroxy-1-methyl-ethyl)-amide] | 444 | 71.8

The next compounds have a lower IC50 (hP2X2/3H) than those just listed; values first:

Row | IC50 (hP2X2/3H) [nM] | IC50 (hP2X3) [nM] | Structure (SMILES)
15 | 36.8 | 29.1 | Cc1ccc(-c2cc(C(=O)N[C@H](C)c3cnc(C)nc3)cc(-c3ccccc3C(N)=O)c2)nc1 [Compound 47, 5′-(5-Methyl-pyridin-2-yl)-biphenyl-2,3′-dicarboxylic acid 2-amide 3′-{[(R)-1-(2-methyl-pyrimidin-5-yl)-ethyl]-amide}]
16 | 83.5 | 66 | Cc1ccc(-c2cc(C(=O)NCc3ccc(C)nc3)cc(-c3ccccc3CN(C)C)c2)nc1 [Compound 28, 2′-Dimethylaminomethyl-5-(5-methyl-pyridin-2-yl)-biphenyl-3-carboxylic acid (6-methyl-pyridin-3-ylmethyl)-amide]
17 | 82 | 38.8 | Cc1ccc(-c2cc(C(=O)N[C@H](C)c3cnc(C)nc3)cc(N3CCCCC3=O)c2)cc1 [Compound 39, (R)-4′-Methyl-N-(1-(2-methylpyrimidin-5-yl)ethyl)-5-(2-oxopiperidin-1-yl)biphenyl-3-carboxamide]
18 | 32.8 | 65.4 | Cc1ccc(-c2cc(C(=O)N[C@H](C)c3cnc(C)nc3)cc(-c3cccc(F)c3F)c2)nc1 [Compound 36, 2′,3′-Difluoro-5-(5-methyl-pyridin-2-yl)-biphenyl-3-carboxylic acid [(R)-1-(2-methyl-pyrimidin-5-yl)-ethyl]-amide]
19 | 98.7 | 122 | Cc1ccc(-c2cc(C(=O)NCc3ccc(C)nc3)cc(-c3cccc(F)c3F)c2)nc1 [Compound 33, 2′,3′-Difluoro-5-(5-methyl-pyridin-2-yl)-biphenyl-3-carboxylic acid (6-methyl-pyridin-3-ylmethyl)-amide]
20 | 143 | 191 | Cc1ccc(-c2cc(C(=O)NCc3ccc(C)nc3)cc(-c3ccncc3)c2)cc1 [Compound 22, 4′-Methyl-5-pyridin-4-yl-biphenyl-3-carboxylic acid (6-methyl-pyridin-3-ylmethyl)-amide]
21 | 122 | 48.6 | Cc1ccc(-c2cc(C(=O)NCc3ccc(C)nc3)cc(N3CCCCC3=O)c2)cc1 [Compound 37, 4′-Methyl-N-((6-methylpyridin-3-yl)methyl)-5-(2-oxopiperidin-1-yl)biphenyl-3-carboxamide]
